Data from patent US11020340B2, “Compositions containing natural products and use thereof for skin and hair” (Seiberg Consulting, LLC, priority 2017, dated 2021).

Assay: ROS-Glo H2O2 assay: removal or elimination of added hydrogen peroxide
Type: biochemical
Conditions: for microM H2O2: Table 2A calibration; for microM H2O2 / Hydrogen peroxide levels, Micro Molar H2O2: 30 minutes at room temperature; for Hydrogen peroxide levels, Micro Molar H2O2: Table 2B
Experimental: Broken-up algae powders (two independent batches) and the prototype formulations of Table 1A were evaluated for their biological activity in the removal or elimination of hydrogen peroxide by using the ROS-Glo™ H2O2 assay kit (Promega). The ROS-Glo™ H2O2 assay is a homogeneous, rapid and sensitive luminescent assay that measures the level of hydrogen peroxide directly in cell culture or in defined reactions. This assay allows identification of conditions or test compounds, such as small molecule inhibitors or inducers that alter ROS levels. An H2O2 Substrate is employed that reacts directly with H2O2 to generate a luciferin precursor. Upon addition of ROS-Glo™ Detection Reagent containing Ultra-Glo™ Recombinant Luciferase and Cysteine, the precursor is converted to luciferin by the d-Cysteine, and the produced luciferin reacts with Ultra-Glo™ Recombinant Luciferase to generate a luminescent signal that is proportional to H2O2 concentration. In the current study H2O2 was added into the reaction wells and the H2O2-degrading activity of the test agents, at various concentrations, was evaluated after 30 minutes of exposure at room temperature. Glutathione (GSH) served as a positive control and the luminescence results (RLU) of different GSH concentrations were calibrated to hydrogen peroxide concentrations (see Table 2A).
In a similar study, one batch of broken-up Porphyridium powder was evaluated for the same biological activity before and after gamma irradiation. The gamma irradiation used was considered weak, and ranged from about 5 to about 15 kGy.
A broken-up algae powder preparation was evaluated for biological activity (removal or elimination of hydrogen peroxide) using the ROS-Glo™ H2O2 assay kit (Promega), as described in Example 2. The powder was suspended in water and used “as is” (non-denatured) for the assay, or was heated to 100 C for 30 minutes to achieve a complete denaturation. Upon heating, the preparation changed its color from red/pink to yellow/green or to light yellow/colorless.

N[C@@H](CCC(=O)N[C@@H](CS)C(=O)NCC(=O)O)C(=O)O [GSH, Glutathione]
microM H2O2 (GSH 0.025 %): 151.69 µM
microM H2O2 (GSH 0.050 %): 105.32 µM
microM H2O2 (GSH 0.100 %): 67.84 µM
microM H2O2 (GSH 0.200 %): 45.76 µM
microM H2O2 (GSH 0.400 %): 14.26 µM
microM H2O2 (GSH 0.800 %): -7.13 µM
microM H2O2 (GSH 1.000 %): -10.27 µM
Hydrogen peroxide levels, Micro Molar H2O2 (0.025 % test agent): 139.566 Micro Molar
Hydrogen peroxide levels, Micro Molar H2O2 (0.050 % test agent): 112.262 Micro Molar
Hydrogen peroxide levels, Micro Molar H2O2 (0.100 % test agent): 76.093 Micro Molar
Hydrogen peroxide levels, Micro Molar H2O2 (0.200 % test agent): 53.453 Micro Molar
Hydrogen peroxide levels, Micro Molar H2O2 (0.400 % test agent): 25.850 Micro Molar
Hydrogen peroxide levels, Micro Molar H2O2 (0.800 % test agent): −6.940 Micro Molar
Hydrogen peroxide levels, Micro Molar H2O2 (1.000 % test agent): −8.278 Micro Molar
Micro Molar H2O2 (Table 2C, 0.0025 % Test/Ref): 58.797 Micro Molar
Micro Molar H2O2 (Table 2C, 0.0050 % Test/Ref): 49.344 Micro Molar
Micro Molar H2O2 (Table 2C, 0.0100 % Test/Ref): 52.736 Micro Molar
Micro Molar H2O2 (Table 2C, 0.0250 % Test/Ref): 41.413 Micro Molar
Micro Molar H2O2 (Table 2C, 0.0500 % Test/Ref): 28.936 Micro Molar
Micro Molar H2O2 (Table 2C, 0.1000 % Test/Ref): 16.548 Micro Molar
Micro Molar H2O2 (Table 2C, 0.2500 % Test/Ref): 6.375 Micro Molar
Micro Molar H2O2 (Table 2C, 0.5000 % Test/Ref): −9.043 Micro Molar
Micro Molar H2O2 (Table 3, 0.025 % test agent): 141.3439 Micro Molar
Micro Molar H2O2 (Table 3, 0.05 % test agent): 98.16 Micro Molar
Micro Molar H2O2 (Table 3, 0.1 % test agent): 53.43 Micro Molar
Micro Molar H2O2 (Table 3, 0.2 % test agent): 10.87 Micro Molar
Micro Molar H2O2 (Table 3, 0.4 % test agent): −14.384 Micro Molar
Micro Molar H2O2 (Table 3, 0.8 % test agent): −14.5708 Micro Molar
